Assay results from ChEMBL document CHEMBL1201862, “PubChem BioAssay data set” (2004).
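These data come from cells grown in 96-well plates and exposed to compound for 48 hours at five concentrations. The concentration for 50% growth inhibition is given as GI50.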 The source made the active and inactive calls. Cut-off read from the data, not from the text of the source: active = GI50 up to about 1.1 µM and inactive = higher.

Key:
Assay in all cases: inhibition of tumour cell growth, NCI panel, 48 h
IGROV-1 = tested on: IGROV-1
NCI-H23 = tested on: NCI-H23
SK-MEL-2 = tested on: SK-MEL-2
SK-MEL-28 = tested on: SK-MEL-28
M14 = tested on: M14
EKVX = tested on: EKVX
UO-31 = tested on: UO-31
MDA-N = tested on: MDA-N
SNB-19 = tested on: SNB-19
MCF7 = tested on: MCF7
HOP-92 = tested on: HOP-92
SR = tested on: SR
PC-3 = tested on: PC-3
LOX IMVI = tested on: LOX IMVI
CAKI-1 = tested on: CAKI-1
TK-10 = tested on: TK-10
SW-620 = tested on: SW-620
786-0 = tested on: 786-0
BT-549 = tested on: BT-549
LXFL 529 = tested on: LXFL 529

SMILES | GI50 (IGROV-1) | GI50 (NCI-H23) | GI50 (SK-MEL-2) | GI50 (SK-MEL-28) | GI50 (M14) | GI50 (EKVX) | GI50 (UO-31) | GI50 (MDA-N) | GI50 (SNB-19) | GI50 (MCF7) | GI50 (HOP-92) | GI50 (SR) | GI50 (PC-3) | GI50 (LOX IMVI) | GI50 (CAKI-1) | GI50 (TK-10) | GI50 (SW-620) | GI50 (786-0) | GI50 (BT-549) | GI50 (LXFL 529)
NCCSCCc1ccccc1 | > 100 µM (inactive) | > 100 µM (inactive) | > 100 µM (inactive) | > 100 µM (inactive) | > 100 µM (inactive) | > 100 µM (inactive) | > 100 µM (inactive) | > 100 µM (inactive) | > 100 µM (inactive) | > 100 µM (inactive) | 72.1 µM (inactive) | 88.3 µM (inactive) | > 100 µM (inactive) | > 100 µM (inactive) | > 100 µM (inactive) | > 100 µM (inactive) | > 100 µM (inactive) | > 100 µM (inactive) | > 100 µM (inactive) | 
O=[N+]([O-])c1cc(Cc2cc([N+](=O)[O-])c3cccnc3c2O)c(O)c2ncccc12 | 3.31 µM (inactive) | 9.48 µM (inactive) | 11.1 µM (inactive) | 13.6 µM (inactive) | 6.07 µM (inactive) | 6.37 µM (inactive) | 4 µM (inactive) | 10.6 µM (inactive) | 6.78 µM (inactive) | 4.4 µM (inactive) | 5.96 µM (inactive) | 0.845 µM (active) | 4.41 µM (inactive) | 3.91 µM (inactive) | 8.77 µM (inactive) | 12.4 µM (inactive) | 5.94 µM (inactive) | 5.82 µM (inactive) | 21.7 µM (inactive) | 
CN(C)C=C1C(Cl)=C(C=O)CC(C=O)=C1Cl | 16.1 µM (inactive) | 14.6 µM (inactive) | 17.6 µM (inactive) | 6.59 µM (inactive) | 12.2 µM (inactive) | 22.4 µM (inactive) | 17.7 µM (inactive) |  | 14.3 µM (inactive) |  | 4.2 µM (inactive) |  |  | 2.19 µM (inactive) | 11.3 µM (inactive) | 16.7 µM (inactive) | 1.56 µM (inactive) | 11.8 µM (inactive) |  | 2.03 µM (inactive)
CCN(CC)c1ccc(/N=N/c2ccc(-c3nc4cccnc4o3)cc2)cc1 | > 100 µM (inactive) | > 100 µM (inactive) | > 100 µM (inactive) | > 100 µM (inactive) | > 100 µM (inactive) | > 100 µM (inactive) | > 100 µM (inactive) |  | > 100 µM (inactive) |  | > 100 µM (inactive) |  |  | > 100 µM (inactive) | > 100 µM (inactive) | > 100 µM (inactive) | > 100 µM (inactive) | > 100 µM (inactive) |  | > 100 µM (inactive)
C[C@H]1[C@H](C)N(Cc2ccccc2)P(=O)(C(O)/C=C/c2ccccc2)N1Cc1ccccc1 (stereo partly drawn) | 8.32 µM (inactive) | 9.84 µM (inactive) | 4.7 µM (inactive) | 8.51 µM (inactive) | 4.62 µM (inactive) | 7.67 µM (inactive) | 5.27 µM (inactive) | 5.55 µM (inactive) | 12 µM (inactive) | 8.3 µM (inactive) | 7.18 µM (inactive) | 6.55 µM (inactive) | 5.37 µM (inactive) | 6.76 µM (inactive) | 8.28 µM (inactive) | 7.01 µM (inactive) | 9.25 µM (inactive) | 5.32 µM (inactive) | 12 µM (inactive) | 
Cc1cc(NS(=O)(=O)c2ccc(Nc3c4ccccc4nc4c(C(=O)Nc5ccc(S(=O)(=O)N=C(N)N)cc5)cccc34)cc2)no1 | > 100 µM (inactive) | > 100 µM (inactive) | > 100 µM (inactive) | > 100 µM (inactive) | > 100 µM (inactive) | > 100 µM (inactive) | > 100 µM (inactive) |  | > 100 µM (inactive) |  | > 100 µM (inactive) |  |  | > 100 µM (inactive) | > 100 µM (inactive) | > 100 µM (inactive) | > 100 µM (inactive) | > 100 µM (inactive) |  | > 100 µM (inactive)
COc1ccc(CCCCNCc2cccc(CNCCCCc3ccc(OC)cc3)c2)cc1 | 1.74 µM (inactive) | 1.78 µM (inactive) | 1.91 µM (inactive) | 1.84 µM (inactive) | 1.69 µM (inactive) | 1.81 µM (inactive) | 1.35 µM (inactive) | 2 µM (inactive) | 1.71 µM (inactive) | 1.54 µM (inactive) | 1.44 µM (inactive) | 1.79 µM (inactive) | 1.79 µM (inactive) | 1.6 µM (inactive) | 1.8 µM (inactive) | 2.07 µM (inactive) | 2.23 µM (inactive) | 2.1 µM (inactive) | 1.81 µM (inactive) | 
CC1CCCC(C(O)CC2CC(=O)NC(=O)C2)C1O (stereo not drawn) | > 100 µM (inactive) | > 100 µM (inactive) | > 100 µM (inactive) | > 100 µM (inactive) | > 100 µM (inactive) | > 100 µM (inactive) | > 100 µM (inactive) | > 100 µM (inactive) | > 100 µM (inactive) | > 100 µM (inactive) | > 100 µM (inactive) | > 100 µM (inactive) | > 100 µM (inactive) | > 100 µM (inactive) | > 100 µM (inactive) | > 100 µM (inactive) | > 100 µM (inactive) | > 100 µM (inactive) | > 100 µM (inactive) | 
O=c1oc2ccccc2cc1-c1nnc(-c2ccccc2)s1 | 22.4 µM (inactive) | > 51.2 µM (inactive) | > 48.8 µM (inactive) | 98.6 µM (inactive) | > 56.1 µM (inactive) | > 58.9 µM (inactive) | 55.6 µM (inactive) | 2.54 µM (inactive) | 41.6 µM (inactive) | 7.67 µM (inactive) | > 100 µM (inactive) | 0.971 µM (active) | > 76.6 µM (inactive) | > 72.8 µM (inactive) | > 64.9 µM (inactive) | > 36.6 µM (inactive) | 12.1 µM (inactive) | 17.3 µM (inactive) | > 68.7 µM (inactive) | 
O=C1Nc2cccc3ncn(c23)C2=C1CCCC2 | > 100 µM (inactive) | > 100 µM (inactive) | > 100 µM (inactive) | > 100 µM (inactive) |  | > 100 µM (inactive) | > 100 µM (inactive) |  | > 100 µM (inactive) |  |  | > 100 µM (inactive) |  | > 100 µM (inactive) |  | > 100 µM (inactive) | > 100 µM (inactive) | > 100 µM (inactive) |  | > 100 µM (inactive)
CCC1(Br)C(=O)NC(=O)N(C2CC(O)C(CO)O2)C1N=[N+]=[N-] (stereo not drawn) | > 100 µM (inactive) | 56.8 µM (inactive) | > 100 µM (inactive) | > 100 µM (inactive) | > 100 µM (inactive) | > 100 µM (inactive) | > 100 µM (inactive) |  | > 100 µM (inactive) |  | > 100 µM (inactive) |  |  | > 100 µM (inactive) | > 100 µM (inactive) | > 100 µM (inactive) | > 100 µM (inactive) | > 100 µM (inactive) |  | > 100 µM (inactive)
OCC(O)C(O)c1nn(-c2ccccc2)c2nc3cc(Cl)c(Cl)cc3nc12 (stereo not drawn) | 24.6 µM (inactive) | 41.5 µM (inactive) | 22.3 µM (inactive) | 41.3 µM (inactive) | 27.9 µM (inactive) | 26.2 µM (inactive) | 5.98 µM (inactive) |  | 48.2 µM (inactive) |  | 35.7 µM (inactive) |  |  | 19.5 µM (inactive) | 16.6 µM (inactive) | 16.7 µM (inactive) | 28.6 µM (inactive) | 18.8 µM (inactive) |  | 20.6 µM (inactive)
CC[P+]1(CC)CCCC1 | > 100 µM (inactive) | > 100 µM (inactive) | > 100 µM (inactive) | > 100 µM (inactive) | > 100 µM (inactive) | > 100 µM (inactive) | > 100 µM (inactive) |  | > 100 µM (inactive) |  |  |  |  | > 100 µM (inactive) | > 100 µM (inactive) | > 100 µM (inactive) | > 100 µM (inactive) | > 100 µM (inactive) |  | > 100 µM (inactive)
NC(=O)C(=Cc1ccc(C(O)P(=O)(O)O)cc1)C(N)=O (stereo not drawn) | > 100 µM (inactive) | > 100 µM (inactive) | > 100 µM (inactive) | > 100 µM (inactive) | > 100 µM (inactive) | > 100 µM (inactive) | > 100 µM (inactive) |  | > 100 µM (inactive) |  | > 100 µM (inactive) |  |  | > 100 µM (inactive) | > 100 µM (inactive) | > 100 µM (inactive) | > 100 µM (inactive) | > 100 µM (inactive) |  | > 100 µM (inactive)
CCC1(CN(C)C)CC/C(=C\c2ccc(OC)cc2)C1=O (stereo not drawn) | > 100 µM (inactive) | > 100 µM (inactive) | > 100 µM (inactive) | > 100 µM (inactive) | > 100 µM (inactive) | > 100 µM (inactive) | > 100 µM (inactive) |  | > 100 µM (inactive) |  | > 100 µM (inactive) |  |  | > 100 µM (inactive) | > 100 µM (inactive) | > 100 µM (inactive) | > 100 µM (inactive) | > 100 µM (inactive) |  | 94 µM (inactive)
COC1CC(O[C@H]2CC[C@@]3(C)C(=CCC4(O)C3CCC35C(=O)OC6(C)O[C@@]43CCC65)C2)OC(C)C1O (stereo partly drawn) | > 100 µM (inactive) | > 100 µM (inactive) | > 100 µM (inactive) | > 100 µM (inactive) | > 100 µM (inactive) | > 100 µM (inactive) | > 100 µM (inactive) |  | > 100 µM (inactive) |  |  | > 100 µM (inactive) |  |  | > 100 µM (inactive) | > 100 µM (inactive) |  | > 100 µM (inactive) |  | > 100 µM (inactive)
C[C@@H](C1CCC2C3C(=CC(=O)[C@@]21C)[C@H](C)[C@]1(CCC(=O)O1)C1OC31)[C@H]1C[C@]2(C)O[C@@](C)(O1)OC2(C)C (stereo partly drawn) | > 100 µM (inactive) | > 100 µM (inactive) |  | > 100 µM (inactive) | > 100 µM (inactive) | > 100 µM (inactive) | > 100 µM (inactive) |  | > 100 µM (inactive) |  | > 100 µM (inactive) |  |  | > 100 µM (inactive) | > 100 µM (inactive) | > 100 µM (inactive) | > 100 µM (inactive) | > 100 µM (inactive) |  | > 100 µM (inactive)
